Data taken from US11807693B2 (priority 2014, dated 2023).
Starred links: 1 amine or outer side, 2 acyl side, 3 side chain; linkers in the order of their positions; H or OH if unused. Non-standard residues stand in square brackets, D forms with d. Residues, ends and D or L forms follow the SMILES beside them. *: point of attachment. dBip = N[C@H](Cc1ccc(-c2ccccc2)cc1)C(=O)O; Oic = O=C(O)[C@@H]1C[C@@H]2CCCC[C@@H]2N1; Phe(4-Cl) = N[C@@H](Cc1ccc(Cl)cc1)C(=O)O; dPhe(4-Cl) = N[C@H](Cc1ccc(Cl)cc1)C(=O)O; Phe(4-F) = N[C@@H](Cc1ccc(F)cc1)C(=O)O; Phe(4-I) = N[C@@H](Cc1ccc(I)cc1)C(=O)O; γGlu = O=C(O)[C@H](CCC(=O)[*:2])N[*:1]; 1Nal = N[C@@H](Cc1cccc2ccccc12)C(=O)O; HOOC(CH2)8CO = O=C(O)CCCCCCCCC(=O)*; d(β3hF) = N[C@@H](CC(=O)O)Cc1ccccc1; NMeR = CN[C@@H](CCCNC(=N)N)C(=O)O; Palmitoyl = CCCCCCCCCCCCCCCC(=O)*; Tridecanoyl = CCCCCCCCCCCCC(=O)*; hArg = N=C(N)NCCCC[C@H](N)C(=O)O; αMeF = C[C@](N)(Cc1ccccc1)C(=O)O; Cha = N[C@@H](CC1CCCCC1)C(=O)O; NMeL = CN[C@@H](CC(C)C)C(=O)O; αMeL = CC(C)C[C@](C)(N)C(=O)O; β3hP = O=C(O)C[C@@H]1CCCN1; Pip = O=C(O)[C@@H]1CCCCN1; Nle = CCCC[C@H](N)C(=O)O; Orn = NCCC[C@H](N)C(=O)O; Deg = CCC(N)(CC)C(=O)O; AEEA = NCCOCCOCC(=O)O; Aib = CC(C)(N)C(=O)O; NPrGly = CCCNCC(=O)O

target: T1, human APJ receptor (Homo sapiens, UniProt P35414); assay: [35S] GTPγS assay, human APJ receptor; assay type: biochemical; conditions: not given
T1 construct: expressed in transfected cells
T1 sequence (P35414 1-380): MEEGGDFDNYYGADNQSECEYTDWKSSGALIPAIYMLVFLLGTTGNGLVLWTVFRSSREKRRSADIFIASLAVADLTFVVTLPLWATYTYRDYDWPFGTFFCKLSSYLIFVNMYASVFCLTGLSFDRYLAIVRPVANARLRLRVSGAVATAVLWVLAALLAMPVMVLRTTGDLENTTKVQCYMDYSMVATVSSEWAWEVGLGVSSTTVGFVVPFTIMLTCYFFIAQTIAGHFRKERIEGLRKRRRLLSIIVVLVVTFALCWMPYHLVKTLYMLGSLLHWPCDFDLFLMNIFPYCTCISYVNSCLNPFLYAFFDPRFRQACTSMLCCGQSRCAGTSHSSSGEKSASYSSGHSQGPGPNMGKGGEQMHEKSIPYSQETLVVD

Compound | EC50 [nM]
CC(=O)N[C@@H](CCCCNC(=N)N)C(=O)N[C@@H](CCCCNC(=N)N)C(=O)N[C@@H](CCC(N)=O)C(=O)N[C@H](CCCNC(=N)N)C(=O)N1CCC[C@H]1C(=O)N(C)[C@@H](CCCNC(=N)N)C(=O)N[C@@H](CC1CCCCC1)C(=O)N[C@@H](CO)C(=O)N[C@@H](Cc1c[nH]cn1)C(=O)N[C@@H](CCCCN)C(=O)NCC(=O)N1[C@H](C(=O)N[C@@H](Cc2ccc(I)cc2)C(=O)N2CCC[C@H]2C(=O)N[C@H](Cc2ccc(-c3ccccc3)cc2)C(=O)O)C[C@@H]2CCCC[C@@H]21 [compound 22] (Ac-[hArg][hArg]Q[dR]P[NMeR][Cha]SHKG[Oic][Phe(4-I)]P[dBip]-OH) | 1.52
CCCC[C@H](NC(=O)[C@@H]1C[C@@H]2CCCC[C@@H]2N1C(=O)CNC(=O)[C@H](CCCCN)NC(=O)[C@H](Cc1c[nH]cn1)NC(=O)[C@H](CO)NC(=O)[C@H](CC1CCCCC1)NC(=O)[C@H](CCCNC(=N)N)N(C)C(=O)[C@@H]1CCCN1C(=O)[C@H](CCCCNC(=N)N)NC(=O)[C@H](CCC(N)=O)NC(=O)[C@H](CCCCNC(=N)N)NC(=O)[C@H](CCCCNC(=N)N)NC(C)=O)C(=O)N1CCC[C@H]1C(=O)N[C@@H](Cc1ccc(Cl)cc1)C(=O)O [compound 56] (Ac-[hArg][hArg]Q[hArg]P[NMeR][Cha]SHKG[Oic][Nle]P[Phe(4-Cl)]-OH) | 0.176

same assay, conditions: Table 16

Compound | EC50 [nM]
CCCCCCCCCCCCC(=O)N[C@@H](CCC(=O)NCCOCCOCC(=O)NCCOCCOCC(=O)N[C@@H](CCC(N)=O)C(=O)N[C@@H](CCCNC(=N)N)C(=O)N1CCCC[C@H]1C(=O)N(C)[C@@H](CCCNC(=N)N)C(=O)N[C@@H](CC1CCCCC1)C(=O)N[C@@H](CO)C(=O)N[C@@H](Cc1c[nH]cn1)C(=O)N[C@@H](CCCCN)C(=O)NCC(=O)N1[C@H](C(=O)N[C@@H](CCCC)C(=O)N2CCC[C@H]2C(=O)N[C@@H](Cc2ccc(Cl)cc2)C(=O)O)C[C@@H]2CCCC[C@@H]21)C(=O)O [compound 440] ({Tridecanoyl-γGlu-AEEA-AEEA}-QR[Pip][NMeR][Cha]SHKG[Oic][Nle]P[Phe(4-Cl)]-OH) | 3.48
CCCCCCCCCCCCC(=O)N[C@@H](CCC(=O)NCCOCCOCC(=O)NCCOCCOCC(=O)N[C@H](CCC(N)=O)C(=O)N[C@@H](CCCCNC(=N)N)C(=O)N1CCC[C@H]1C(=O)N[C@H](CCCNC(=N)N)C(=O)N[C@@H](CC1CCCCC1)C(=O)N[C@@H](CO)C(=O)N[C@@H](Cc1c[nH]cn1)C(=O)N[C@@H](CCCCN)C(=O)NCC(=O)N1[C@H](C(=O)N[C@@H](CCCC)C(=O)N2CCC[C@H]2C(=O)N[C@@H](Cc2cccc3ccccc23)C(=O)O)C[C@@H]2CCCC[C@@H]21)C(=O)O [compound 367] ({Tridecanoyl-γGlu-AEEA-AEEA}-[dQ][hArg]P[dR][Cha]SHKG[Oic][Nle]P[1Nal]-OH) | 26.4
CCCCCCCCCCCCC(=O)N[C@@H](CCC(=O)NCCOCCOCC(=O)NCCOCCOCC(=O)N[C@@H](CCC(N)=O)C(=O)N[C@@H](CCCNC(=N)N)C(=O)N1CCC[C@H]1C(=O)N(C)[C@@H](CCCNC(=N)N)C(=O)N[C@@H](CC1CCCCC1)C(=O)N[C@@H](CO)C(=O)N[C@@H](Cc1c[nH]cn1)C(=O)N[C@@H](CCCCN)C(=O)NCC(=O)N1[C@H](C(=O)N[C@@H](CCCC)C(=O)N2CCC[C@H]2C(=O)N[C@H](Cc2ccc(Cl)cc2)C(=O)O)C[C@@H]2CCCC[C@@H]21)C(=O)O [compound 381] ({Tridecanoyl-γGlu-AEEA-AEEA}-QRP[NMeR][Cha]SHKG[Oic][Nle]P[dPhe(4-Cl)]-OH) | 6.11
CCCCCCCCCCCCC(=O)N[C@@H](CCC(=O)NCCOCCOCC(=O)NCCOCCOCC(=O)N[C@@H](CCC(N)=O)C(=O)N[C@@H](CCCNC(=N)N)C(=O)N1CCC[C@H]1CC(=O)N(C)[C@@H](CCCNC(=N)N)C(=O)N[C@@H](CC1CCCCC1)C(=O)N[C@@H](CO)C(=O)N[C@@H](Cc1c[nH]cn1)C(=O)N[C@@H](CCCCN)C(=O)NCC(=O)N1[C@H](C(=O)N[C@@H](CCCC)C(=O)N2CCC[C@H]2C(=O)N[C@@H](Cc2ccc(Cl)cc2)C(=O)O)C[C@@H]2CCCC[C@@H]21)C(=O)O [compound 441] ({Tridecanoyl-γGlu-AEEA-AEEA}-QR[β3hP][NMeR][Cha]SHKG[Oic][Nle]P[Phe(4-Cl)]-OH) | 1.9

Next, values leading:

EC50 [nM] | Compound
1.2 | CCCCCCCCCCCCC(=O)N[C@@H](CCC(=O)NCCOCCOCC(=O)NCCOCCOCC(=O)N[C@H](CCC(N)=O)C(=O)N[C@@H](CCCNC(=N)N)C(=O)N1CCC[C@H]1C(=O)N(C)[C@@H](CCCNC(=N)N)C(=O)N[C@@H](CC1CCCCC1)C(=O)N[C@@H](CO)C(=O)N[C@@H](Cc1c[nH]cn1)C(=O)N[C@@H](CCCCN)C(=O)NCC(=O)N1[C@H](C(=O)N[C@@H](CCCC)C(=O)NC(CC)(CC)C(=O)N[C@@H](Cc2ccc(Cl)cc2)C(=O)O)C[C@@H]2CCCC[C@@H]21)C(=O)O [compound 549] ({Tridecanoyl-γGlu-AEEA-AEEA}-[dQ]RP[NMeR][Cha]SHKG[Oic][Nle][Deg][Phe(4-Cl)]-OH)
53.1 | CCCCCCCCCCCCC(=O)N[C@@H](CCC(=O)NCCOCCOCC(=O)NCCOCCOCC(=O)N[C@H](CCC(N)=O)C(=O)N[C@@H](CCC(=O)O)C(=O)N1CCC[C@H]1C(=O)N(C)[C@@H](CCCNC(=N)N)C(=O)N[C@@H](CC1CCCCC1)C(=O)N[C@@H](CO)C(=O)N[C@@H](Cc1c[nH]cn1)C(=O)N[C@@H](CCCCN)C(=O)NCC(=O)N1[C@H](C(=O)N[C@@H](CCCC)C(=O)NC(C)(C)C(=O)N[C@@H](Cc2ccc(Cl)cc2)C(=O)O)C[C@@H]2CCCC[C@@H]21)C(=O)O [compound 524] ({Tridecanoyl-γGlu-AEEA-AEEA}-[dQ]EP[NMeR][Cha]SHKG[Oic][Nle][Aib][Phe(4-Cl)]-OH)

same assay, conditions: human APJ receptor

Compound | EC50 [nM]
CC(C)C[C@@H](C(=O)N[C@@H](CO)C(=O)N[C@@H](Cc1c[nH]cn1)C(=O)N[C@@H](CCCCN)C(=O)NCC(=O)N1[C@H](C(=O)N[C@@H](Cc2ccc(I)cc2)C(=O)N2CCC[C@H]2C(=O)N[C@H](Cc2ccc(-c3ccccc3)cc2)C(=O)O)C[C@@H]2CCCC[C@@H]21)N(C)C(=O)[C@@H](CCCNC(=N)N)NC(=O)[C@@H]1CCCN1C(=O)[C@H](CCCCNC(=N)N)NC(=O)[C@H](CCC(N)=O)NC(=O)COCCOCCNC(=O)COCCOCCNC(=O)CC[C@H](NC(=O)CCCCCCCCC(=O)O)C(=O)O [compound 288] ({HOOC(CH2)8CO-γGlu-AEEA-AEEA}-Q[hArg]P[dR][NMeL]SHKG[Oic][Phe(4-I)]P[dBip]-OH) | 38.5
CCCCCCCCCCCCC(=O)N[C@@H](CCC(=O)NCCOCCOCC(=O)NCCOCCOCC(=O)N[C@@H](CCCCNC(=N)N)C(=O)N[C@@H](CCCC)C(=O)N[C@@H](CCC(N)=O)C(=O)N[C@@H](CCCCNC(=N)N)C(=O)N1CCC[C@H]1C(=O)N[C@H](CCCNC(=N)N)C(=O)N(C)[C@@H](CC(C)C)C(=O)N[C@@H](C)C(=O)N[C@@H](Cc1c[nH]cn1)C(=O)N[C@@H](CCCCN)C(=O)NCC(=O)N1[C@H](C(=O)N[C@@H](Cc2ccc(I)cc2)C(=O)N2CCC[C@H]2C(=O)N[C@H](Cc2ccc(-c3ccccc3)cc2)C(=O)O)C[C@@H]2CCCC[C@@H]21)C(=O)O [compound 321] ({Tridecanoyl-γGlu-AEEA-AEEA}-[hArg][Nle]Q[hArg]P[dR][NMeL]AHKG[Oic][Phe(4-I)]P[dBip]-OH) | 17.9

Further lines, results first:

EC50 [nM] | Compound
1.4 | CCCCCCCCCCCCCCCC(=O)N[C@@H](CCC(=O)NCCOCCOCC(=O)NCCOCCOCC(=O)N[C@H](CCC(N)=O)C(=O)N[C@@H](CCCNC(=N)N)C(=O)N1CCC[C@H]1C(=O)N(C)[C@@H](CCCNC(=N)N)C(=O)N[C@@H](CC1CCCCC1)C(=O)N[C@@H](CO)C(=O)N(CCC)CC(=O)N[C@@H](CCCCN)C(=O)NCC(=O)N1CCCC[C@H]1C(=O)N[C@@H](CCCC)C(=O)NC(C)(C)C(=O)N[C@@H](Cc1ccc(Cl)cc1)C(=O)O)C(=O)O [compound 644] ({Palmitoyl-γGlu-AEEA-AEEA}-[dQ]RP[NMeR][Cha]S[NPrGly]KG[Pip][Nle][Aib][Phe(4-Cl)]-OH)
1.25 | CCCCCCCCCCCCCCCC(=O)N[C@@H](CCC(=O)NCCOCCOCC(=O)NCCOCCOCC(=O)N[C@H](CCC(N)=O)C(=O)N[C@@H](CCCNC(=N)N)C(=O)N1CCC[C@H]1C(=O)N(C)[C@@H](CCCNC(=N)N)C(=O)N[C@@H](CC1CCCCC1)C(=O)N[C@@H](CO)C(=O)N[C@@H](Cc1c[nH]cn1)C(=O)N[C@@H](CCCCN)C(=O)NCC(=O)N1[C@H](C(=O)N[C@@H](CCCC)C(=O)N2CCCC[C@H]2C(=O)N[C@@](C)(Cc2ccccc2)C(=O)O)C[C@@H]2CCCC[C@@H]21)C(=O)O [compound 609] ({Palmitoyl-γGlu-AEEA-AEEA}-[dQ]RP[NMeR][Cha]SHKG[Oic][Nle][Pip][αMeF]-OH)
0.165 | CCCCCCCCCCCCCCCC(=O)N[C@@H](CCC(=O)NCCOCCOCC(=O)NCCOCCOCC(=O)N[C@H](CCC(N)=O)C(=O)N[C@@H](CCCNC(=N)N)C(=O)N1CCC[C@H]1C(=O)N(C)[C@@H](CCCNC(=N)N)C(=O)N[C@@](C)(CC(C)C)C(=O)N[C@@H](CO)C(=O)N[C@@H](Cc1c[nH]cn1)C(=O)N[C@@H](CCCN)C(=O)NCC(=O)N1[C@H](C(=O)N[C@@H](CCCC)C(=O)N2CCC[C@H]2CC(=O)N[C@@H](Cc2ccc(Cl)cc2)C(=O)O)C[C@@H]2CCCC[C@@H]21)C(=O)O [compound 634] ({Palmitoyl-γGlu-AEEA-AEEA}-[dQ]RP[NMeR][αMeL]SH[Orn]G[Oic][Nle][β3hP][Phe(4-Cl)]-OH)
11.8 | CCCCCCCCCCCCCCCC(=O)N[C@@H](CCC(=O)NCCOCCOCC(=O)NCCOCCOCC(=O)N[C@H](CCC(N)=O)C(=O)N[C@@H](CCCNC(=N)N)C(=O)N1CCC[C@H]1C(=O)N(C)[C@@H](CCCNC(=N)N)C(=O)N[C@@H](CC1CCCCC1)C(=O)N[C@@H](CO)C(=O)N[C@@H](Cc1c[nH]cn1)C(=O)N[C@@H](Cc1ccc(F)cc1)C(=O)NCC(=O)N1[C@H](C(=O)N[C@@H](CCCC)C(=O)N2CCC[C@H]2CC(=O)N[C@@H](CC(=O)O)Cc2ccccc2)C[C@@H]2CCCC[C@@H]21)C(=O)O [compound 622] ({Palmitoyl-γGlu-AEEA-AEEA}-[dQ]RP[NMeR][Cha]SH[Phe(4-F)]G[Oic][Nle][β3hP][d(β3hF)]-OH)
